Data set [1] concerns Schistosoma mansoni cercariae. Nature of the data set: Activity against Schistosoma mansoni cercariae (survival/mobility observed with a stereomagnifier). The following applies: 500 μl/l final concentration of the active compounds; test period of 120 minutes. On the set-up: key: no effect during the entire test period of 120 minutes; 1: weak effect (the cercariae have a strongly reduced mobility); 2: good effect (the cercariae are only slightly mobile and bent); 3: full effect (the cercariae are completely immobile). As to the method: Activity Against Schistosoma mansoni Cercariae
Snails (Biomphalaria glabrata) were infected by incubating each of them with 8 miracidia in 10 ml of water overnight. About 6 to 9 weeks after the infection, cercariae were obtained by irradiating the snails, which had been kept in darkness, with light, followed by collection of the swarming cercariae within 2 hours.
Such an amount of cercariae-containing water (1 or 2 ml, see below) was added to the test batches that each batch contained about 100 to 150 cercariae.
9 ml of aquarium water was then added, and the batch was shaken vigorously. After (delayed) addition of 1 ml of cercariae suspension, survival of the cercariae was in each case observed immediately using a stereomagnifier.

The subject of data set [2] is cercariae of Schistosoma mansoni. The following applies: literature statement; cited from earlier work.
The test system is the same in data set [3]. The settings on record: topical, monkeys; literature statement; cited from earlier work.
The conditions of data set [4]: literature / regulatory statement; cited from earlier work.

We go through eleven molecules from patent publication US8501775B2, “Anthelmintics for preventing parasitic infections in humans and animals” (SALTIGO GmbH, priority 2000, dated 2013).

In data set [1], `CC(C)(C)OC(=O)N1CCCCC1CCO` (stereo not shown) gave an Assessment of 3.
The molecule `C=CCOC(=O)N1CCCCC1CCO` (stereo not shown) came in with an Assessment in data set [1] of 3.
Still for that read-out and setting: for `CCCCOC(=O)N1CCCCC1CCO` (stereo not shown) the value was 3; for `CCC(C)OC(=O)N1CCCCC1CCO` (stereo not shown), 2.
In data set [1], `CCC(C)COC(=O)N(C)CCCO` (stereo not shown) yielded an Assessment of 1.
In turn, `CCCCOC(=O)N(C)CCCO` showed an Assessment in data set [1] of 1.
The same measure, in the same setting: the value for `CN(CCCO)C(=O)OC1CCCCC1` was 1.
Still for that read-out and setting: the value for `C=CCCOC(=O)N(C)CCCO` was 2.
For `CCN(CC)C(=O)c1cccc(C)c1` [DEET, N,N-Diethyl-m-toluamide], the “effect on cercariae of Schistosoma mansoni” value in data set [2] is “acts against cercariae”.
As to `O=C(Nc1ccc([N+](=O)[O-])cc1Cl)c1cc(Cl)ccc1O` [Niclosamide], the “action against the penetration of cercariae” value in data set [3] is “acts against the penetration of cercariae”. The toxicity / hazard entry in data set [4] was “may possibly cause inheritable genetic damage”.
Consider `Oc1c(Cl)cc(Cl)c(Cl)c1Cc1c(O)c(Cl)cc(Cl)c1Cl` [hexachlorophene], for which the “effect on cercariae of Schistosoma mansoni” value in data set [2] is given as “lethal effect”. Also, in data set [4], the toxicity / hazard result was “toxic on contact with the skin and when swallowed”.
